Tests used:
Format in all cases: in vivo, rat
[1] = system: Male Wistar rats; experiment: Amphetamine-induced psychomotor activity (locomotor activity, total distance traveled); conditions: FIG. 3; summed over 90 minutes after 1.5 mg/kg s.c. amphetamine; 5-HT2a antagonist 0.2 mpk, mGluR2/3 agonist 1 mpk
Excerpt: (§1) Compounds with antipsychotic efficacy are known to block amphetamine-induced psychomotor activity in rats (Bardi et al., Behavioural Pharmacology (2007), 18(2), 103-118). Male Wistar rats were received on site and housed for 7 days with food and water ad libitum. On the day of testing, animals were given vehicle (water for mGluR2/3 agonist, 1% Tween for 5-HT2A antagonist), the 5-HT2A antagonist volinanserin (0.2 mpk), the mGluR2/3 agonist (−)-2-oxa-4-aminobicyclo[3.1.0]hexane-4,6-dicarboxylate (1 mpk), or both the 5-HT2A antagonist (0.2 mpk) and the mGluR2/3 agonist (1 mpk) and placed in locomotor activity monitors. Thirty minutes later animals received a subcutaneous injection of saline or 1.5 mg/kg amphetamine and placed back into the locomotor activity monitors for 90 minutes. Total distance traveled was used to assess locomotor behavior. The distance traveled is summed over the ninety minutes after amphetamine or saline treatment.

[2] = system: Male Wistar rats; experiment: MK-801-induced psychomotor activity (locomotor activity, total distance traveled); conditions: 5-HT2A antagonist 0.2 mpk, mGluR2/3 agonist 1 mpk; for reduction of the response to MK-801: 90 minutes after 0.2 mg/kg s.c. MK-801; for psychomotor activity, total distance traveled after MK-801: summed over 90 minutes after 0.2 mg/kg s.c. MK-801, control≃200 cm, MK-801 alone≃2000 cm
Protocol: Male Wistar rats were received on site and housed for 7 days with food and water ad libitum. […] Thirty minutes later animals received a subcutaneous injection of saline or 0.2 mg/kg MK-801 and were placed back into the locomotor activity monitors for 90 minutes. Total distance traveled was used to assess locomotor behavior. The distance traveled is summed over the ninety minutes after MK-801 or saline treatment.

[3] = system: Male Wistar rats; experiment: Ketamine-induced psychomotor activity (locomotor activity, total distance traveled); conditions: mGluR2/3 agonist 1 mpk; for whether ketamine increased psychomotor activity (locomotor response): FIG. 2, first 60 minutes after ketamine or saline, 5-HT2a antagonist 0.2 mpk
Excerpt: as §1, with “block Ketamine-induced” for “block amphetamine-induced”, “or 37.5” for “or 1.5”, “mg/kg Ketamine” for “mg/kg amphetamine”, “into the'locomotor” for “into the locomotor”, “after ketamine” for “after amphetamine”
Similarly, locomotor response was determined over the first 60 minutes after receiving ketamine or saline as a function of treatment with vehicle, the 5-HT2a antagonist (0.2 mpk), the mGluR2/3 agonist (1 mpk), or the 5-HT2a antagonist (0.2 mpk)+the mGluR2/3 agonist (1 mpk).

Row | Structure (SMILES) | influence on amphetamine-induced psychomotor activity [1] | reduction of the response to MK-801 [2] | psychomotor activity, total distance traveled after MK-801 [2] | response to ketamine (psychomotor activity, distance traveled) relative to the 0-0-Ketamine group ([3]; FIG. 1, summed over 90 minutes after 37.5 mg/kg s.c. ketamine, 5-HT2A antagonist 0.2 mpk, given 30 min before) | whether ketamine increased psychomotor activity (locomotor response) [3]
1 | NC1(C(=O)O)COC2C(C(=O)O)C21 (single isomer, unassigned; (-)) [mGluR2/3 agonist, (−)-2-oxa-4-aminobicyclo[3.1.0]hexane-4,6-dicarboxylate] | did not influence amphetamine-induced psychomotor activity | Neither the mGluR2/3 agonist nor the 5-HT2A antagonist given alone reduced the response to MK-801 | ~1900 cm | decreased the response to ketamine | ketamine increased psychomotor activity
2 | COc1cccc([C@H](O)C2CCN(CCc3ccc(F)cc3)CC2)c1OC [5-HT2A antagonist, (+)-alpha-(2,3-dimethoxyphenyl)-1-[2-(4 fluorophenyl)ethyl]-4-piperidine methanol] | did not influence amphetamine-induced psychomotor activity | Neither the mGluR2/3 agonist nor the 5-HT2A antagonist given alone reduced the response to MK-801 | ~2500 cm | – | ketamine increased psychomotor activity

Source: US20110190345A1, “Treatment of Psychosis with a 5HT2A Antagonist and a Metabotropic Glutamate Receptor Agonist or Potentiator” (priority 2007, published 2011)
